Values after ≈ are worked out from the molar mass of the structure shown. Blank lines part the entries; values can stand above or below the compound they belong to. Active and inactive are the calls of the source. The calls are words filed in the database; no cut-off is given here.
Experiments:
[1] = tested on: Candida albicans; assay: Antifungal activity against Candida albicans ATCC 90028 at 20 ug/ml by CLSI method; type: functional, organism-based
[2] = tested on: Aspergillus fumigatus; assay: Antifungal activity against Aspergillus fumigatus ATCC 90906 at 20 ug/ml by CLSI method; type: functional, organism-based
[3] = tested on: Cryptococcus neoformans; assay: Antifungal activity against Cryptococcus neoformans ATCC 90113 at 20 ug/ml by CLSI method; type: functional, organism-based
[4] = tested on: Cryptococcus neoformans; assay: Antifungal activity against Cryptococcus neoformans ATCC 90113 by CLSI method; type: functional, organism-based
[5] = tested on: Aspergillus fumigatus; assay: Antifungal activity against Aspergillus fumigatus ATCC 90906 by CLSI method; type: functional, organism-based
[6] = tested on: Candida albicans; assay: Antifungal activity against Candida albicans ATCC 90028 by CLSI method; type: functional, organism-based; conditions: Candida albicans, ATCC 90028
[7] = tested on: Vero; assay: Cytotoxicity against african green monkey Vero cells after 48 hrs by neutral red assay; type: cell-based; conditions: Chlorocebus sabaeus
[8] = tested on: Candida albicans; assay: Antifungal activity against Candida albicans B311 ATCC 32354-infected mouse assessed as reduction of CFU per gram of kidney at 5 mg/kg, ip qd for 3 days relative to control; type: functional; set-up: scale not given: the % may be the effect or the level left; conditions: route intraperitoneal
[9] = tested on: Mus musculus; assay: Toxicity in Candida albicans B311 ATCC 32354-infected mouse assessed as gross pathological lesions at 1 to 10 mg/kg, ip qd for 3 days; type: organism-based; set-up: dose 1-10 mg/kg, route intraperitoneal; conditions: in vivo, 72 h
[10] = tested on: Cryptococcus neoformans; assay: Antifungal activity against Cryptococcus neoformans ATCC 52657-infected mouse assessed as reduction of CFU per gram of brain at 5 mg/kg, ip qd for 5 days relative to control; type: functional; set-up: scale not given: the % may be the effect or the level left; conditions: route intraperitoneal
[11] = tested on: Candida albicans; assay: Antifungal activity against Candida albicans B311 ATCC 32354-infected mouse assessed as reduction of CFU per gram of kidney at 10 mg/kg, ip qd for 3 days relative to control; type: functional; set-up: scale not given: the % may be the effect or the level left; conditions: route intraperitoneal
[12] = Toxicity in Candida albicans B311 ATCC 32354-infected ip dosed mouse administered qd for 3 days; type: organism-based; conditions: in vivo
[13] = tested on: Candida albicans; assay: Antifungal activity against Candida albicans B311 ATCC 32354-infected mouse assessed as reduction of CFU per gram of kidney at 1.2 mg/kg, ip qd for 3 days relative to control; type: functional; set-up: scale not given: the % may be the effect or the level left; conditions: route intraperitoneal
[14] = tested on: Mus musculus; assay: Toxicity in Candida albicans B311 ATCC 32354-infected mouse assessed as change in body weight at 1 to 10 mg/kg, ip qd for 3 days; type: organism-based; set-up: dose 1-10 mg/kg, route intraperitoneal; conditions: in vivo, 72 h
[15] = tested on: Candida albicans; assay: Antifungal activity against Candida albicans B311 ATCC 32354-infected mouse assessed as reduction of CFU per gram of kidney at 1 mg/kg, ip qd for 3 days relative to control; type: functional; set-up: scale not given: the % may be the effect or the level left; conditions: route intraperitoneal
[16] = Toxicity in Candida albicans B311 ATCC 32354-infected mouse assessed as white deposits of unknown origin in peritoneal cavity at 20 mg/kg, ip qd for 3 days; type: organism-based; set-up: dose 20 mg/kg, route intraperitoneal; conditions: in vivo, 72 h
[17] = tested on: Cryptococcus neoformans; assay: Antifungal activity against Cryptococcus neoformans ATCC 52657-infected mouse assessed as reduction of CFU per gram of brain at 10 mg/kg, ip qd for 5 days relative to control; type: functional; set-up: scale not given: the % may be the effect or the level left; conditions: route intraperitoneal
[18] = tested on: Cryptococcus neoformans; assay: Antifungal activity against Cryptococcus neoformans ATCC 52657-infected mouse assessed as reduction of CFU per gram of brain at 1.2 mg/kg, ip qd for 5 days relative to control; type: functional; set-up: scale not given: the % may be the effect or the level left; conditions: route intraperitoneal
[19] = tested on: Cryptococcus neoformans; assay: Antifungal activity against Cryptococcus neoformans ATCC 52657-infected mouse assessed as reduction of CFU per gram of brain at 1 mg/kg, ip qd for 5 days relative to control; type: functional; set-up: scale not given: the % may be the effect or the level left; conditions: route intraperitoneal
[20] = tested on: Mus musculus; assay: Toxicity in Cryptococcus neoformans ATCC 52657 infected mouse assessed as change in gross pathology of spleen at 10 to 20 mg/kg, ip qd for 5 days; type: organism-based; set-up: dose 10-20 mg/kg, route intraperitoneal; conditions: in vivo, 120 h
[21] = tested on: Mus musculus; assay: Toxicity in Cryptococcus neoformans ATCC 52657 infected mouse assessed as distension of jejunum at 20 mg/kg, ip qd for 5 days; type: organism-based; set-up: dose 20 mg/kg, route intraperitoneal; conditions: in vivo, 120 h
[22] = tested on: Mus musculus; assay: Toxicity in Cryptococcus neoformans ATCC 52657 infected mouse assessed as change in body weight at 20 mg/kg, ip qd for 5 days; type: organism-based; set-up: dose 20 mg/kg, route intraperitoneal; conditions: in vivo, 120 h
[23] = tested on: Mus musculus; assay: Toxicity in Cryptococcus neoformans ATCC 52657 infected mouse assessed as decrease in mobility at 10 to 20 mg/kg, ip qd for 5 days after 2 hrs last post dose; type: organism-based; set-up: dose 10-20 mg/kg, route intraperitoneal; conditions: in vivo
[24] = tested on: Mus musculus; assay: Toxicity in Cryptococcus neoformans ATCC 52657 infected mouse assessed as decrease in mobility at 10 to 20 mg/kg, ip qd for 5 days; type: organism-based; set-up: dose 10-20 mg/kg, route intraperitoneal; conditions: in vivo, 120 h
[25] = tested on: Mus musculus; assay: Toxicity in Cryptococcus neoformans ATCC 52657 infected mouse assessed as pathological lesions at 10 mg/kg, ip qd for 5 days; type: organism-based; set-up: dose 10 mg/kg, route intraperitoneal; conditions: in vivo, 120 h
[26] = tested on: Mus musculus; assay: Toxicity in Cryptococcus neoformans ATCC 52657 infected mouse assessed as distension of cecum at 10 mg/kg, ip qd for 5 days; type: organism-based, Caecum; set-up: dose 10 mg/kg, route intraperitoneal; conditions: in vivo, 120 h
[27] = tested on: Mus musculus; assay: Toxicity in Cryptococcus neoformans ATCC 52657 infected mouse assessed as change in gross pathology of kidney at 10 to 20 mg/kg, ip qd for 5 days; type: organism-based; set-up: dose 10-20 mg/kg, route intraperitoneal; conditions: in vivo, 120 h
[28] = tested on: Mus musculus; assay: Toxicity in Cryptococcus neoformans ATCC 52657 infected mouse assessed as signs of discomfort at 10 to 20 mg/kg, ip qd for 5 days after 2 hrs last post dose; type: organism-based; set-up: dose 10-20 mg/kg, route intraperitoneal; conditions: in vivo
[29] = tested on: Mus musculus; assay: Toxicity in Cryptococcus neoformans ATCC 52657 infected mouse assessed as distension of jejunum at 10 mg/kg, ip qd for 5 days; type: organism-based; set-up: dose 10 mg/kg, route intraperitoneal; conditions: in vivo, 120 h
[30] = tested on: Mus musculus; assay: Toxicity in Cryptococcus neoformans ATCC 52657 infected mouse assessed as signs of discomfort at 10 to 20 mg/kg, ip qd for 5 days; type: organism-based; set-up: dose 10-20 mg/kg, route intraperitoneal; conditions: in vivo, 120 h
[31] = tested on: Mus musculus; assay: Toxicity in Cryptococcus neoformans ATCC 52657 infected mouse assessed as distension of cecum at 20 mg/kg, ip qd for 5 days; type: organism-based, Caecum; set-up: dose 20 mg/kg, route intraperitoneal; conditions: in vivo, 120 h
[32] = tested on: Mus musculus; assay: Toxicity in Cryptococcus neoformans ATCC 52657 infected mouse assessed as distension of duodenum at 20 mg/kg, ip qd for 5 days; type: organism-based; set-up: dose 20 mg/kg; conditions: in vivo, other, 120 h
[33] = tested on: Mus musculus; assay: Toxicity in Cryptococcus neoformans ATCC 52657 infected mouse assessed as change in body weight at 10 mg/kg, ip qd for 5 days; type: organism-based; set-up: dose 10 mg/kg, route intraperitoneal; conditions: in vivo, 120 h
[34] = tested on: Mus musculus; assay: Toxicity in Cryptococcus neoformans ATCC 52657 infected mouse assessed as distension of duodenum at 10 mg/kg, ip qd for 5 days; type: organism-based; set-up: dose 10 mg/kg; conditions: in vivo, other, 120 h
[35] = tested on: Mus musculus; assay: Toxicity in Cryptococcus neoformans ATCC 52657 infected mouse assessed as enlargement of liver with fusion of hepatic lobes at 20 mg/kg, ip qd for 5 days; type: organism-based; set-up: dose 20 mg/kg, route intraperitoneal; conditions: in vivo, 120 h

SMILES: C[n+]1c2cccc(O)c2cc2sc3ccccc3c21
Activity [1]: inactive
Activity [2]: inactive
Activity [3]: inactive

IC50 [4]: 15 µg/mL
MIC [4]: > 20 µg/mL
MIC [5]: 2.5 µg/mL
IC50 [6]: 2 µg/mL
MIC [6]: > 20 µg/mL
SMILES: C[n+]1c2ccc(Cl)cc2cc2sc3ccccc3c21.[I-]
IC50 [7]: > 23.8 µg/mL

SMILES: COc1cccc2cc3sc4ccccc4c3[n+](C)c12.O=S(=O)([O-])C(F)(F)F
IC50 [4]: 15 µg/mL
MIC [4]: > 20 µg/mL
IC50 [5]: 3 µg/mL
MIC [5]: 5 µg/mL
IC50 [6]: 15 µg/mL
MIC [6]: > 20 µg/mL

IC50 [4]: 12.5 µg/mL (≈ 53.8 µM)
SMILES: C[n+]1c2ccccc2cc2[n-]c3ccccc3c21 [CRYPTOLEPINE]
IC50 [7]: 3.2 µg/mL (≈ 13.8 µM)

SMILES: COc1ccc2cc3sc4ccccc4c3[n+](C)c2c1.O=S(=O)([O-])C(F)(F)F
Activity [8]: 26%
Activity [9]: Non-toxic
IC50 [4]: 6 µg/mL
MIC [4]: > 20 µg/mL
Activity [10]: 26%
Activity [11]: 86%
MTD at 72 h [12]: 10 mg/kg
Activity [13]: 99%
Activity [14]: Non-toxic
IC50 [5]: 0.4 µg/mL
MIC [5]: 0.6 µg/mL
Activity [15]: 34%
Activity [16]: Toxic
IC50 [6]: 1.5 µg/mL
MIC [6]: 10 µg/mL
Activity [17]: 10%
Activity [18]: 24%
IC50 [7]: > 10 µg/mL
Activity [19]: 50%

IC50 [6]: 20 µg/mL
MIC [6]: > 20 µg/mL
SMILES: C[n+]1c2ccccc2cc2sc3ccc(Cl)cc3c21.[I-]
Activity [2]: inactive
Activity [3]: inactive
IC50 [7]: > 10 µg/mL

SMILES: C[n+]1c2ccccc2cc2sc3ccccc3c21.O=S(=O)([O-])C(F)(F)F
IC50 [4]: > 15 µg/mL
MIC [4]: > 20 µg/mL
MIC [5]: > 20 µg/mL
IC50 [6]: 10 µg/mL
MIC [6]: > 20 µg/mL
IC50 [7]: > 23.8 µg/mL

SMILES: C[C@@H]1[C@H](O)[C@@H](C)/C=C/C=C/C=C/C=C/C=C/C=C/C=C/[C@H](O[C@@H]2O[C@H](C)[C@@H](O)[C@H](N)[C@@H]2O)C[C@@H]2O[C@](O)(C[C@@H](O)C[C@@H](O)[C@H](O)CC[C@@H](O)C[C@@H](O)CC(=O)O[C@H]1C)C[C@H](O)[C@H]2C(=O)O [AMPHOTERICIN B]
IC50 [4]: 1.5 µg/mL (≈ 1.62 µM)
MIC [4]: 2.5 µg/mL (≈ 2.71 µM)
IC50 [5]: 1.5 µg/mL (≈ 1.62 µM)
MIC [5]: 2.5 µg/mL (≈ 2.71 µM)
MIC [6]: 0.6 µg/mL (≈ 0.649 µM)

SMILES: C[n+]1c2cc(Cl)ccc2cc2sc3ccccc3c21.O=S(=O)([O-])C(F)(F)F
IC50 [4]: 10 µg/mL
MIC [4]: > 20 µg/mL
Activity [1]: inactive
Activity [2]: inactive
IC50 [7]: > 10 µg/mL

SMILES: C[n+]1c2cccc(Cl)c2cc2sc3ccccc3c21.O=S(=O)([O-])C(F)(F)F
IC50 [5]: 3 µg/mL
MIC [5]: 10 µg/mL
Activity [1]: inactive
Activity [3]: inactive

IC50 [5]: 1.5 µg/mL
MIC [5]: 2.5 µg/mL
IC50 [6]: 15 µg/mL
MIC [6]: > 20 µg/mL
SMILES: COc1cccc2c1cc1sc3ccccc3c1[n+]2C.[I-]

SMILES: C[n+]1c2c(Cl)cccc2cc2sc3ccccc3c21.O=S(=O)([O-])C(F)(F)F
Activity [20]: Non-toxic
Activity [21]: Toxic
Activity [22]: Toxic
Activity [23]: Non-toxic
Activity [24]: Toxic
IC50 [4]: 4 µg/mL
MIC [4]: 10 µg/mL
Activity [25]: Non-toxic
Activity [26]: Toxic
Activity [27]: Non-toxic
IC50 [5]: 6 µg/mL
MIC [5]: 10 µg/mL
Activity [28]: Non-toxic
Activity [29]: Toxic
Activity [1]: inactive
Activity [30]: Toxic
Activity [31]: Toxic
IC50 [7]: > 10 µg/mL
Activity [32]: Toxic
Activity [33]: Non-toxic
Activity [34]: Toxic
Activity [35]: Toxic

Source: ChEMBL document CHEMBL1641593, “Benzothieno[3,2-b]quinolinium and 3-(phenylthio)quinolinium compounds: Synthesis and evaluation against opportunistic fungal pathogens” (Bioorg Med Chem, 2011)
